Laboratory results published in patent US12479847B2 (DANA-FARBER CANCER INSTITUTE, INC., priority 2019, dated 2025).
Where two headings read alike, the source gives them in different places.

Experiments:
Assay in all cases: KINOMEscan (ScanMAX) kinase profiling
Type in all cases: binding
[1] = biological target: T1, panel of 468 kinases (Homo sapiens, UniProt Q9NRP7); details: STK36; 1 μM; read-out: % control
T1 construct: purchased KINOMEscan (ScanMAX) service
T1 sequence (Q9NRP7 1-1315): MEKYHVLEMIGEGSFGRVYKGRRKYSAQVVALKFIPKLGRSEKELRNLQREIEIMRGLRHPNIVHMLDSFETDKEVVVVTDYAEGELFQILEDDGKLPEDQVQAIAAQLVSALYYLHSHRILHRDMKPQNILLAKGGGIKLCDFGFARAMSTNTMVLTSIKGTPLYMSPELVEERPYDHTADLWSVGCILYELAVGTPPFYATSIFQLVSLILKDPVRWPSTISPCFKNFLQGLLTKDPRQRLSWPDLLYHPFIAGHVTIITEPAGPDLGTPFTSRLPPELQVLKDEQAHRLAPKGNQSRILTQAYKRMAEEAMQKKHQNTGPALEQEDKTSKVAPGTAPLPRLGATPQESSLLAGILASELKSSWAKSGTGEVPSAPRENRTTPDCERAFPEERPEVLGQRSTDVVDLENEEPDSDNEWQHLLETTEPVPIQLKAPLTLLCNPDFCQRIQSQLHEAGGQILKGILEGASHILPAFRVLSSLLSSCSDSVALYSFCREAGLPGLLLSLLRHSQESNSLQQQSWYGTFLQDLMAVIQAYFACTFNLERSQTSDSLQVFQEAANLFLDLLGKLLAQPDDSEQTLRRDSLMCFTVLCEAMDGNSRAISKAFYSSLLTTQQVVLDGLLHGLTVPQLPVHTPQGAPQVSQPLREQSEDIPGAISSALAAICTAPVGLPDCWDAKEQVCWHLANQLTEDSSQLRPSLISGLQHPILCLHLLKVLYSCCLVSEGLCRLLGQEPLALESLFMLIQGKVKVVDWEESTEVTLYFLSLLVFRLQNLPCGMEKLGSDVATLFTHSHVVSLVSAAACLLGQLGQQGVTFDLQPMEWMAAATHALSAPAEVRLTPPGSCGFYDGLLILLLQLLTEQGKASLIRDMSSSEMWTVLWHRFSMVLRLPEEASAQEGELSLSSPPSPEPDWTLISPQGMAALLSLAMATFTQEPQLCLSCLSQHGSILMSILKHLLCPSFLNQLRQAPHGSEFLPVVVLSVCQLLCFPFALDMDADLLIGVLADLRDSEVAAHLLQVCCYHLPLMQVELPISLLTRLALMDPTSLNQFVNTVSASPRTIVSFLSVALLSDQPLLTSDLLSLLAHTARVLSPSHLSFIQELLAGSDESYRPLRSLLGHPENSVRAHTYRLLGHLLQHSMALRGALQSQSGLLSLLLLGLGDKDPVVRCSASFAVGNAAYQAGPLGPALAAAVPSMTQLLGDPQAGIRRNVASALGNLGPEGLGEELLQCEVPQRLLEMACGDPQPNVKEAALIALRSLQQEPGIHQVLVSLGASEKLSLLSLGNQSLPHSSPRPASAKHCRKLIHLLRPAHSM

[2] = biological target: T2, panel of 468 kinases (Homo sapiens, UniProt Q14680); details: MELK; 1 μM; read-out: % control
T2 construct: purchased KINOMEscan (ScanMAX) service

[3] = biological target: T3, panel of 468 kinases (Homo sapiens, UniProt Q32MK0); details: MLCK; 1 μM; read-out: % control
T3 construct: purchased KINOMEscan (ScanMAX) service
T3 sequence (Q32MK0 1-819): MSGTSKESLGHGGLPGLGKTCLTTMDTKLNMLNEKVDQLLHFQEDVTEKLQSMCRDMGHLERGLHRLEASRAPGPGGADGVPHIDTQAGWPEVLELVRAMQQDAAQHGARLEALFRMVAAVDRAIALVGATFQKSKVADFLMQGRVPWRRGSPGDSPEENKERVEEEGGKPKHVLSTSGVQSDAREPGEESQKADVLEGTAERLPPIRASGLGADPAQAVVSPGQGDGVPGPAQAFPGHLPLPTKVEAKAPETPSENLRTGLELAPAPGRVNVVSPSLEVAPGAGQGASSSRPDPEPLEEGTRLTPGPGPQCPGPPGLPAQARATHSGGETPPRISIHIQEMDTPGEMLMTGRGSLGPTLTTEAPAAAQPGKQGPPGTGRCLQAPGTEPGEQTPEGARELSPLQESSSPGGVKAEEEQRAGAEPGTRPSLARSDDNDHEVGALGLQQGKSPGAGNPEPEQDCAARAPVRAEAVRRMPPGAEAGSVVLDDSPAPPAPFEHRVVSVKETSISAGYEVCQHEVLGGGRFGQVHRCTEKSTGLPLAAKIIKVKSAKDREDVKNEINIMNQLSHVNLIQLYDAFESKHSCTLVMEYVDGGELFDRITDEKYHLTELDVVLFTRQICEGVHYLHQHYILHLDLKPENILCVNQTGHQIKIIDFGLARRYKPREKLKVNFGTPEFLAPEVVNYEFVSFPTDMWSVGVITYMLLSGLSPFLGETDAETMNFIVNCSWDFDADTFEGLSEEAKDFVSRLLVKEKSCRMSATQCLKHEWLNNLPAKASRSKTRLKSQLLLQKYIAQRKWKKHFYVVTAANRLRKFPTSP

[4] = biological target: T4, panel of 468 kinases (Homo sapiens, UniProt O96013); details: PAK4; 1 μM; read-out: % control
T4 construct: purchased KINOMEscan (ScanMAX) service

[5] = biological target: T5, panel of 468 kinases (Homo sapiens, UniProt P00519, H396P); details: 1 μM, read-out: % control
T5 construct: purchased KINOMEscan (ScanMAX) service

T4 sequence (O96013 whole entry): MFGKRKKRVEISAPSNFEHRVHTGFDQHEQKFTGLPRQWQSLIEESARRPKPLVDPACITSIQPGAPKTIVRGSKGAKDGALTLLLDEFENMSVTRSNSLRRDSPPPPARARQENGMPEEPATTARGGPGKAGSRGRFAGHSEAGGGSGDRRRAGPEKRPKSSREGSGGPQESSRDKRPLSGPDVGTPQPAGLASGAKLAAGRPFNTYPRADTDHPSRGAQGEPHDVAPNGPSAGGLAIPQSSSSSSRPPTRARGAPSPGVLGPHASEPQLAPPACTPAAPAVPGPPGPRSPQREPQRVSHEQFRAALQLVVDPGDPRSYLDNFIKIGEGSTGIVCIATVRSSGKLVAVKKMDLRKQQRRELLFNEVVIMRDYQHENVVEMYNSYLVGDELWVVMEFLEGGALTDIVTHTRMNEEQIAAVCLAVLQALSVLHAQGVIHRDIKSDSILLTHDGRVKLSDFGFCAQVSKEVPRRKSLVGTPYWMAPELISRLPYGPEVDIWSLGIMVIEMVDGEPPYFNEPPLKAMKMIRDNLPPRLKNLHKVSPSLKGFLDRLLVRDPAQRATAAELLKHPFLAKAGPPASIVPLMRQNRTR
T2 sequence (Q14680 whole entry): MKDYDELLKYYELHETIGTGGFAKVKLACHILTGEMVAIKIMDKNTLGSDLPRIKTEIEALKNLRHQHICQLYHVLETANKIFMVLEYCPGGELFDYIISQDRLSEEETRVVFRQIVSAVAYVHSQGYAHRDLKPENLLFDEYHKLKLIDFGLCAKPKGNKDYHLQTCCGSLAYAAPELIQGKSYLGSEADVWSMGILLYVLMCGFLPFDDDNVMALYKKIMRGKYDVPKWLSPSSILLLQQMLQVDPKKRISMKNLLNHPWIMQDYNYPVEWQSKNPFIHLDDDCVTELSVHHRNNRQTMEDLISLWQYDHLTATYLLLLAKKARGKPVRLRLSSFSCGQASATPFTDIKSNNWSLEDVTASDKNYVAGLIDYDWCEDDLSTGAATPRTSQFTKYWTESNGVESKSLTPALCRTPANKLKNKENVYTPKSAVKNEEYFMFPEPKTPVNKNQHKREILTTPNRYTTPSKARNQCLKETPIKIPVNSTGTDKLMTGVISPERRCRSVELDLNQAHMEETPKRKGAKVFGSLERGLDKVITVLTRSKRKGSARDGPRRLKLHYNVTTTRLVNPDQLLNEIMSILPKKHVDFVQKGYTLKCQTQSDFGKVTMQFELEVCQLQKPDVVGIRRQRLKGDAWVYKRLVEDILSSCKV

Compound | remaining binding at 1 µM [1] | remaining binding at 1 µM [2] | remaining binding at 1 µM [3] | remaining binding at 1 µM [4] | remaining binding at 1 µM ([5]; ABL1(H396P)-nonphosphorylated) | remaining binding at 1 µM ([5]; ABL1(H396P)-phosphorylated)
CNc1nc(Nc2ccc(S(=O)(=O)N3CCC(N4CCOCC4)CC3)cc2OC)nc2[nH]cc(Cl)c12 [Compound 12, 5-chloro-N2-(2-methoxy-4-((4-morpholinopiperidin-1-yl)sulfonyl)phenyl)-N4-methyl-7H-pyrrolo[2,3-d]pyrimidine-2,4-diamine] | 100% | 100% | 100% | 100% | 100% | 73%
CNc1nc(Nc2ccc(C(=O)N3CCC(N4CCOCC4)CC3)c3c2OCO3)nc2[nH]cc(Cl)c12 [Compound 75, (7-((5-chloro-4-(methylamino)-7H-pyrrolo[2,3-d]pyrimidin-2-yl)amino)benzo[d][1,3]dioxol-4-yl)(4-morpholinopiperidin-1-yl)methanone] | 100% | 30% | 35% | 100% | 99% | 82%
CNc1nc(Nc2ccc(P3(=O)CCN(C4CCOCC4)CC3)cc2OC)nc2[nH]cc(Cl)c12 [Compound 77, 4-(4-((5-chloro-4-(methylamino)-7H-pyrrolo[2,3-d]pyrimidin-2-yl)amino)-3-methoxyphenyl)-1-(tetrahydro-2H-pyran-4-yl)-1,4-azaphosphinane 4-oxide] | 100% | 85% | 98% | 100% | 100% | 75%
